Data set [1] can be described thus: isothermal moisture sorption test. As to conditions: at 90±2% relative humidity; isothermal 25.1±0.1° C.; conducted from approximately 1% to 90% (±2%) humidity. The data set is classed as physicochemical. As to the method:
In another embodiment, the succinate salt increases in weight by less than 0.5% at 90±2% relative humidity in an isothermal (25.1±0.1° C.) moisture sorption test conducted from approximately 1% to 90% (±2%) humidity.

Data set [2] is described as follows: solid-state properties for formulation (deliquescence, hygroscopicity). The data set is classed as physicochemical. The following applies: solid salt.

Each structure is given as a SMILES string.

Take `Cn1cc(-c2ccncc2)c(-c2ccc(OCc3ccc4ccccc4n3)cc2)n1.O=C(O)CCC(=O)O` [succinate salt, succinate salt of 2-((4-(1-methyl-4-(pyridin-4-yl)-1H-pyrazol-3-yl)phenoxy)methyl)quinoline]: the “increase in weight in moisture sorption test” value in data set [1] is recorded as “less than 0.5%”. In data set [2], the deliquescence result is on record as “not deliquescent” and the hygroscopicity result is given as “non-hygroscopic”.

The values are drawn from patent US20100063089A1, “SUCCINATE SALT OF 2-((4-(1-METHYL-4-PYRIDIN-4-YL)-1H-PYRAZOL-3-YL)PHENOXY)METHYL)QUINOLINE” (PFIZER INC, priority 2006, published 2010).
